Literature values in the CATMoS acute toxicity set (Mansouri et al. 2021).
Values joined by “and” are separate entries in the source; they are usually repeats but may differ in a detail not shown here. Equal values may be shown once.

assay: rat acute oral toxicity; conditions: in vivo

In order of rising LD50:
1. OCCC1CCN(CCC=C2c3ccc(F)cc3Sc3ccc(C(F)(F)F)cc32)CC1  1.5 mg/kg
2. CCOP(=O)(OCC)SCCS(=O)(=O)CC  1.9 mg/kg
3. CN1C(C(=O)Nc2ccccn2)C(=O)c2sc(Cl)cc2S1(=O)=O (centres undefined)  5.73 mg/kg
4. CCN=C1SC(=NOC(=O)NC)C(C)(C)S1  6.3 mg/kg
5. FC(F)(F)c1ccc2nc(C(F)(F)F)[nH]c2c1  9.02 mg/kg
6. COP(=O)(OC)OC(Cl)C(Cl)(Cl)Cl (centres undefined)  14 mg/kg
7. CCCOP(=O)(OCCC)Oc1cnn(C)c(=O)c1OC  15 mg/kg
8. COc1ccc2c(c1)c(CC(=O)O)c(C)n2C(=O)c1ccc(Cl)cc1  21 mg/kg
9. N#Cc1ccccc1C#N  30 mg/kg
10. CCOP(=O)(OCC)O/C(=C\Cl)c1cc(Cl)ccc1Cl  35 mg/kg
11. CCOP(=S)(OCC)SCSc1cc(Cl)ccc1Cl  44 mg/kg
12. CN(C)CC#N  50 mg/kg
13. CCOP(=O)(OCC)ON1C(=O)c2cccc3cccc(c23)C1=O  70 mg/kg
14. O=S1OC[C@@H]2[C@H](CO1)[C@]1(Cl)C(Cl)=C(Cl)[C@@]2(Cl)C1(Cl)Cl (some centres undefined)  76 mg/kg
15. CN(C)N(C)N=O  95 mg/kg
16. CC(C)(C#N)/N=N/C(C)(C)C#N  100 mg/kg
17. ONc1ccccc1  100 mg/kg
18. CCNCC(O)c1cccc(O)c1 (centres undefined)  114 mg/kg
19. ON=CC=NO  119 mg/kg
20. CN(C)P1(=S)OCc2cc([N+](=O)[O-])ccc2O1 (centres undefined)  125 mg/kg
21. COc1cc(C(=O)N2CCCCCCC2)cc(OC)c1OC  130 mg/kg
22. CC(CC(=O)c1ccc(-c2ccc(F)cc2F)cc1)C(=O)O (centres undefined)  134 mg/kg
23. CNC(=O)Oc1ccccc1C1OCCCO1  142 mg/kg
24. NCC(CC(=O)O)c1ccc(Cl)cc1 (centres undefined)  145 mg/kg
25. Cc1ccc(CC(C)N)cc1 (centres undefined)  150 mg/kg
26. CCN(CC)CCOC(=O)C(O)(c1ccccc1)c1ccccc1  184 mg/kg
27. Cc1ccccc1C(O)(c1ccccc1)C(C)CN(C)C (centres undefined)  185 mg/kg
28. CCCCCCCCCCCCCCCCCCN(C)C  200 mg/kg
29. COC(=O)C(C(=O)Cc1c(C)n(C(=O)c2ccc(Cl)cc2)c2ccc(OC)cc12)C(=O)OC  208 mg/kg
30. CCC(=O)C1(c2cccc(O)c2)CCN(C)CC1  215 mg/kg
31. CN(C)c1ccncc1  250 mg/kg
32. COP(=S)(OC)Oc1ccc([N+](=O)[O-])c(Cl)c1  285 mg/kg
33. CCN(N=O)C(N)=O  300 mg/kg
34. CC(C)NNC(=O)c1ccncc1  365 mg/kg
35. CCOC(C1=NCCCN1)c1ccc(Cl)c(Cl)c1 (centres undefined)  370 mg/kg
36. Nc1ncnc(Nc2cccc(Cl)c2)n1  400 mg/kg
37. O=C(NC(=O)c1c(F)cccc1F)Nc1cc(Cl)c(Oc2ncc(C(F)(F)F)cc2Cl)c(Cl)c1  445 mg/kg
38. CCC(C)C(CN(C)C)c1ccc(OC)c(Cl)c1 (centres undefined)  454 mg/kg
39. Cc1ccc(Cl)cc1N  464 mg/kg
40. C/N=N/Nc1ccc(Br)cc1  467 mg/kg
41. CCCCCCCCCCCCCCCCCC1=NC(C)CC(C)(C)N1 (centres undefined)  493 mg/kg
42. Cc1ccc(S(=O)(=O)OCCCl)cc1  498 mg/kg
43. C=CC(=O)OCC[N+](C)(C)C  500 mg/kg
44. COP(=S)(OC)Oc1cc(C)c(Cl)cc1C(C)C  500 mg/kg
45. CCOP(=S)(OCC)ON1C(=O)c2cccc3cccc(c23)C1=O  500 mg/kg
46. Cc1c(C(=O)N(C)C)nnn1-c1ccccc1  500 mg/kg
47. Cc1ccc(Cl)c(OCC(O)CNC(C)(C)C)c1 (centres undefined)  518 mg/kg
48. FC(F)(F)c1cccc(OCC2CNC(=S)O2)c1 (centres undefined)  524 mg/kg
49. Clc1cn[nH]c1  527 mg/kg
50. Cc1ncc(CS)c(CS)c1O  549 mg/kg
51. FC1(F)CC(C2CC3(Cl)C(Cl)=C(Cl)C2(Cl)C3(Cl)Cl)C1(F)F (centres undefined)  550 mg/kg
52. CCCCC(O)C(N)CC (centres undefined)  550 mg/kg
53. O=C(O)COc1ccc2ccccc2c1  600 mg/kg
54. ClC=C(Cl)CCl  616 mg/kg
55. OC(CCN1CCCCC1)(c1ccccc1)C1CCCC1 (centres undefined)  628 mg/kg
56. CCOP(=S)(NC(C)CC)Oc1cc(C)ccc1[N+](=O)[O-] (centres undefined)  630 mg/kg
57. FC(F)(F)c1nnc2c3ccccc3ccn12  660 mg/kg
58. FC(F)(F)C(=NOCC1OCCO1)c1ccc(Cl)cc1  669 mg/kg
59. CCCC(CCC)C(=O)O  670 mg/kg
60. CC(C)N(C)C  684 mg/kg
61. O=c1[nH]c2cc(Cl)c(Cl)cc2o1  700 mg/kg
62. CC(C)[N+](=O)[O-]  720 mg/kg
63. CC(=O)CCC1C(=O)N(c2ccccc2)N(c2ccccc2)C1=O  720 mg/kg
64. C/C=N/O  740 mg/kg
65. CN(C)C(=S)N/N=C/c1ccc([N+](=O)[O-])o1  750 mg/kg
66. CC(C(c1ccc(Cl)cc1)c1ccc(Cl)cc1)[N+](=O)[O-] (centres undefined)  750 mg/kg
67. O=CC1C(=O)N(c2ccccc2)N=C1c1ccccc1 (centres undefined)  789 mg/kg
68. Fc1ccc(C(c2ccccc2)(c2ccccc2F)n2ccnc2)cc1 (centres undefined)  808 mg/kg
69. CCN(CC)CCOc1ccc2c(c1)C(=O)c1cc(OCCN(CC)CC)ccc1-2  852 mg/kg
70. CC(=O)SCc1cnc(C)c(O)c1CSC(C)=O  870 mg/kg
71. CCOC(C1=NCC(C)(C)CN1)c1ccccc1 (centres undefined)  875 mg/kg
72. COc1ccc(CCC2=NCCc3cc(OC)c(OC)cc32)cc1OC  900 mg/kg
73. C=CCOC(=O)CC1CCCCC1  900 mg/kg
74. CN1CCCCC1CCN1c2ccccc2Sc2ccc(Br)cc21 (centres undefined)  900 mg/kg
75. Cc1nc(C(C)C)c(=O)[nH]c1C  903 mg/kg
76. CC[N+](C)(CC)CCOC(=O)C(O)(c1ccccc1)C1CCCCC1 (centres undefined)  995 mg/kg
77. CCN(N=O)C(C)OC (centres undefined)  1000 mg/kg
78. CN1C(=O)CCS(=O)(=O)C1c1ccc(Cl)c(Cl)c1 (centres undefined)  1050 mg/kg
79. COC(F)=C(C(F)(F)F)C(F)(F)F  1070 mg/kg
80. CCN(N=O)C(C)C  1100 mg/kg
81. C=CCOc1ccccc1C(=O)NCCO  1150 mg/kg
82. CNC(=O)Oc1ccc(O)c2ccccc12  1190 mg/kg
83. O=C(NCCO[N+](=O)[O-])c1cccnc1  1220 mg/kg
84. C=CCc1ccc(OC)cc1  1230 mg/kg
85. Cc1ccc(N)c(C)c1  1260 mg/kg
86. CCC1(CC)C(=O)C=CN(CN2CCNCC2)C1=O  1340 mg/kg
87. CCSC(C)CC1CC(=O)C(/C(CC)=N/OC/C=C/Cl)=C(O)C1 (centres undefined)  1360 mg/kg
88. Cc1cc(Cl)cc(O)c1O  1410 mg/kg
89. O=[N+]([O-])c1cc([N+](=O)[O-])c(Cl)c(S(=O)(=O)O)c1  1460 mg/kg
90. CCCC(=O)OC(Cl)C(Cl)(Cl)Cl (centres undefined)  1480 mg/kg
91. C[C@@H](N)[C@@H](O)c1ccccc1  1490 mg/kg
92. CCCCNC(=O)OCC(O)C1COc2ccccc2O1 (centres undefined)  1500 mg/kg
93. CCOC(=O)C(C)N(C(=O)c1ccccc1)c1ccc(Cl)c(Cl)c1 (centres undefined)  1550 mg/kg
94. O=C1NC(=O)C2(c3ccc(Cl)cc3)CC12 (centres undefined)  1550 mg/kg
95. CCN(CC)C(=O)CSc1ccc(Cl)nn1  1550 mg/kg
96. Clc1ccc(CSC(Cn2ccnc2)c2ccc(Cl)cc2Cl)cc1 (centres undefined)  1740 mg/kg
97. CCOc1cc(OP(=S)(OC)OC)nc(CC)n1  1800 mg/kg
98. CN1CCN(CCCN2c3ccccc3Sc3ccc(Cl)cc32)CC1  1800 mg/kg
99. CCOC(N)=O  1810 mg/kg
100. Nc1cc(-c2cccs2)no1  1850 mg/kg
101. CCC(CC)CO  1850 mg/kg
102. COCC(=O)N(c1c(C)cccc1C)N1CCOC1=O  1860 mg/kg
103. O=C(O)CCC1(CCC(=O)O)c2ccccc2-c2ccccc21  2140 mg/kg
104. CC(=O)OCCN(CCOC(C)=O)c1ccccc1  2150 mg/kg
105. CC(=O)CO  2200 mg/kg
106. C=C[C@]1(C)C[C@@H](OC(=O)CSCCN(CC)CC)[C@]2(C)[C@H](C)CC[C@]3(CCC(=O)[C@H]32)[C@@H](C)[C@@H]1O  2230 mg/kg
107. COc1cc(NC(=O)C(N=Nc2ccc(-c3ccc(N=NC(C(C)=O)C(=O)Nc4ccc(C)cc4C)c(Cl)c3)cc2Cl)C(C)=O)c(OC)cc1Cl (centres undefined)  2230 mg/kg
108. O=C(OC[C@H]1O[C@@H](OC(=O)c2cc(O)c(O)c(OC(=O)c3cc(O)c(O)c(O)c3)c2)[C@H](OC(=O)c2cc(O)c(O)c(OC(=O)c3cc(O)c(O)c(O)c3)c2)[C@@H](OC(=O)c2cc(O)c(O)c(OC(=O)c3cc(O)c(O)c(O)c3)c2)[C@@H]1OC(=O)c1cc(O)c(O)c(OC(=O)c2cc(O)c(O)c(O)c2)c1)c1cc(O)c(O)c(OC(=O)c2cc(O)c(O)c(O)c2)c1  2260 mg/kg
109. CCCCCCCCCCNCCCCCCCC  2400 mg/kg
110. O=C1N(Cc2ccccc2)C2C[S+]3CCCC3C2N1Cc1ccccc1 (centres undefined)  2490 mg/kg
111. OCCN(CCO)C1CCCCC1  2600 mg/kg
112. NC(=O)Nc1cccc2c3c([nH]c12)CCCC3  2770 mg/kg
113. OCC(Cl)C(Cl)CO (centres undefined)  2830 mg/kg
114. CCOC(C)C#N (centres undefined)  2860 mg/kg
115. CC(CC(C)(C)O)OCCC#N (centres undefined)  3200 mg/kg
116. O=C(O)C1CCCCC1  3260 mg/kg
117. Cc1ccc(C(C)C=O)cc1 (centres undefined)  3500 mg/kg
118. NC(N)=NCC1CCCCCCN1 (centres undefined)  3550 mg/kg
119. COC(=O)c1ccccc1OC  3800 mg/kg
120. CC(C)Nc1nc(Cl)nc(NC(C)C)n1  3840 mg/kg
121. C=COCCOC  3900 mg/kg
122. CC(C)OCCCO  4000 mg/kg
123. C/C(=N\O)C(=O)c1ccccc1  4240 mg/kg
124. CCOc1ccc(NCCC#N)cc1  4600 mg/kg
125. C=COCCSCC  4920 mg/kg
126. O=S(=O)(O)c1ccc(N2CCC(c3ccc(Cl)cc3)=N2)cc1  5530 mg/kg
127. NC(CO)(CO)CO  5900 mg/kg
128. C[C@]12CCC(=O)C=C1CC[C@@H]1[C@@H]2[C@@H](O)C[C@@]2(C)[C@H]1CC[C@]2(O)C(=O)COP(=O)(O)O  6100 mg/kg
129. CC(C)(C)c1cc(CCC(=O)OCCSCCOC(=O)CCc2cc(C(C)(C)C)c(O)c(C(C)(C)C)c2)cc(C(C)(C)C)c1O  6300 mg/kg
130. Cc1cc(Sc2cc(C)c(O)c(C(C)(C)C)c2)cc(C(C)(C)C)c1O  6340 mg/kg
131. c1ccc2sc(SN(C3CCCCC3)C3CCCCC3)nc2c1  6420 mg/kg
132. C[C@H](NCC=C(c1ccsc1)c1ccsc1)[C@H](O)c1ccccc1  6600 mg/kg
133. O=C(O)CCCO  9690 mg/kg
134. CCOCCOCCOC(C)=O  11000 mg/kg
135. Sc1c(Cl)c(Cl)c(Cl)c(Cl)c1Cl  11900 mg/kg
136. CC(=O)OCC(C)OC(C)=O (centres undefined)  13500 mg/kg
137. O=c1c2ccccc2c2ccc3c4c(ccc1c24)c1ccc2c(=O)c4ccccc4c4nn3c1c24  13900 mg/kg
138. FC(F)(F)C(F)(F)OC(F)(F)C(F)(F)F  20000 mg/kg
139. CCCCC(CC)COC(=O)c1ccccc1C(=O)OCC(CC)CCCC (centres undefined)  30000 mg/kg

In the case of `C[N+]1(C)CCCCC1`, the LD50 is given as 270 mg/kg and 464 mg/kg.
For `c1ccc(C2CN3CCSC3=N2)cc1` (centres undefined), the LD50 is given as 180 mg/kg and 480 mg/kg.
In the case of `CN(C)C(=O)C(CCN1CCC(O)(c2ccc(Cl)cc2)CC1)(c1ccccc1)c1ccccc1`, the LD50 is given as 185 mg/kg and 98 mg/kg.
In the case of `C[C@H](CCC(=O)O)[C@H]1CC[C@H]2[C@@H]3C(=O)C[C@@H]4CC(=O)CC[C@]4(C)[C@H]3CC(=O)[C@]12C`, the LD50 is given as 3760 mg/kg and 4000 mg/kg.
For `O=C(O)C=CC(=O)O`, the LD50 is listed as 8000 mg/kg and 3380 mg/kg.
